Laboratory results as given in patent US8183239B2, “Substituted piperazines and piperidines as modulators of the neuropeptide Y2 receptor” (Janssen Pharmaceutica NV, priority 2005, dated 2012).

Target: T1, Y2 receptors (Homo sapiens, UniProt P49146)
T1 construct: endogenous in cells; host or cells: KAN-Ts cells (membranes)
T1 sequence (P49146 1-381): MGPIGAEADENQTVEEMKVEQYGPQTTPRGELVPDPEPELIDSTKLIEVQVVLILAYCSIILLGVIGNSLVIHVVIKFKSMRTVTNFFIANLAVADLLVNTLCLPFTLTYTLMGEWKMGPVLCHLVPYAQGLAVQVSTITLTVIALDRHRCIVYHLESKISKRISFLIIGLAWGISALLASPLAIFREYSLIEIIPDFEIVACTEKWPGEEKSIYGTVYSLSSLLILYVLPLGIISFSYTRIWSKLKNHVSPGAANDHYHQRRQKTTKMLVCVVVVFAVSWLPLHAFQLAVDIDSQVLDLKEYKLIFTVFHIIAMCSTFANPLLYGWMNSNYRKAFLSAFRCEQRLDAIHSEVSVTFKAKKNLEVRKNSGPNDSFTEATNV
Experiment: Radioligand binding assay ([125I]PYY, KAN-Ts cell membranes)
Settings: Table 2, [125I]PYY 80 pM, average of results, read-out: IC50
How it was run: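 IC50 values are means of three to eight experiments run in duplicate, fitted sigmoidally against specific binding (defined by […]). Competition used 80 pM [^125I]PYY for 1 h at room temperature on KAN-Ts membranes carrying native Y2, with filtration and scintillation counting.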

Row | IC50 | Structure (SMILES)
1 | 3300 nM | CCN(CC)C(=O)C(c1ccccc1)N1CCN(c2ccc(C(=O)C3CCCC3)cc2F)CC1 (stereo not shown) [Example 167, 2-[4-(4-Cyclopentanecarbonyl-2-fluoro-phenyl)-piperazin-1-yl]-N,N-diethyl-2-phenyl-acetamide]
2 | 740 nM | CCN(CC)C(=O)C(c1ccccc1)N1CCN(c2ccc(/C(=N/O)C3CCCC3)cc2F)CC1 (stereo not shown) [Example 168, 2-{4-[4-(Cyclopentyl-hydroxyimino-methyl)-2-fluoro-phenyl]-piperazin-1-yl}-N,N-diethyl-2-phenyl-acetamide]
3 | 410 nM | CCC(C)C(=O)c1ccc(N2CCN(C(C(=O)N(CC)CC)c3ccccc3)CC2)c(F)c1 (stereo not shown) [Example 169, N,N-Diethyl-2-{4-[2-fluoro-4-(2-methyl-butyryl)-phenyl]-piperazin-1-yl}-2-phenyl-acetamide]
4 | 260 nM | CCC(CC)C(=O)NCc1ccc(N2CCN(C(C(=O)N(CC)CC)c3ccccc3)CC2)c(F)c1 (stereo not shown) [Example 170, N-{4-[4-(Diethylcarbamoyl-phenyl-methyl)-piperazin-1-yl]-3-fluoro-benzyl}-2-ethyl-butyramide]
5 | 270 nM | CCOC(=O)C(c1ccccc1)N1CCN(c2ccc(N3CCN(C(CC)CC)S3(=O)=O)cc2F)CC1 (stereo not shown) [Example 171, {4-[2-Fluoro-4-(5-(3-pentyl)-1,2,5-thiadiazolidine-2-yl,1,1-dioxide)-phenyl]-piperazin-1-yl}-phenyl-acetic acid ethyl ester]
6 | 520 nM | CCCNS(=O)(=O)N(CCC)c1ccc(N2CCN(C(C(=O)N(CC)CC)c3ccccc3)CC2)c(F)c1 (stereo not shown) [Example 172, 2-{4-[4-(1,3-Dipropyl-sulfamoyl)-2-fluoro-phenyl]-piperazin-1-yl}-N,N-diethyl-2-phenyl-acetamide]
7 | 590 nM | CCN(CC)C(=O)C(c1ccccc1)N1CCN(c2ccc(N3CCN(C(=O)OC)S3(=O)=O)cc2F)CC1 (stereo not shown) [Example 173, 3-{4-[4-(Diethylcarbamoyl-phenyl-methyl)-piperazin-1-yl]-3-fluoro-phenyl}-1,2,5-thiadiazolidine, 1,1-dioxide-2-carboxylic acid methyl ester]
8 | 4000 nM | CCN(CC)C(=O)C(c1ccccc1)N1CCN(c2ccc(N3CCNS3(=O)=O)cc2F)CC1 (stereo not shown) [Example 174, N,N-Diethyl-2-{4-[2-fluoro-4-(1,2,5-thiadiazolidine-2-yl,1,1-dioxide)-phenyl]-piperazin-1-yl}-2-phenyl-acetamide]
9 | ≥ 10000 nM | CCOC(=O)C(c1ccccc1)N1CCN(c2ccc(N3CCN(C(=O)OC)S3(=O)=O)cc2F)CC1 (stereo not shown) [Example 175, 3-{4-[4-(Ethoxycarbonyl-phenyl-methyl)-piperazin-1-yl]-3-fluoro-phenyl}-1,2,5-thiadiazolidine, 1,1-dioxide-2-carboxylic acid methyl ester]
10 | ≥ 10000 nM | CCOC(=O)C(c1ccccc1)N1CCN(c2ccc(N3CCNS3(=O)=O)cc2F)CC1 (stereo not shown) [Example 176, {4-[2-Fluoro-4-(1,2,5-Thiadiazolidine-2-yl,1,1-dioxide)-phenyl]-piperazin-1-yl}-phenyl-acetic acid ethyl ester]
11 | ≥ 10000 nM | CCOC(=O)C(c1ccccc1)N1CCN(c2ccc(N3CCN(C4CCN(CC)C4)S3(=O)=O)cc2F)CC1 (stereo not shown) [Example 177, {4-[2-Fluoro-4-(5-(1-Ethyl-pyrrolidin-3-yl)-1,2,5-thiadiazolidine-2-yl, 1,1-dioxide)-phenyl]-piperazin-1-yl}-phenyl-acetic acid ethyl ester]
12 | 2900 nM | CCOC(=O)C(c1ccccc1)N1CCN(c2ccc(N3CCN(C4CCOC4)S3(=O)=O)cc2F)CC1 (stereo not shown) [Example 178, {4-[2-Fluoro-4-(5-(tetrahydro-furan-3-yl)-1,2,5-thiadiazolidine-2-yl, 1,1-dioxide)-phenyl]-piperazin-1-yl}-phenyl-acetic acid ethyl ester]
13 | 540 nM | CCCN1CCN(c2ccc(N3CCN(C(C(=O)OCC)c4ccccc4)CC3)c(F)c2)S1(=O)=O (stereo not shown) [Example 179, {4-[2-Fluoro-4-(5-propyl-1,2,5-thiadiazolidine-2-yl,1,1-dioxide)-phenyl]-piperazin-1-yl}-phenyl-acetic acid ethyl ester]
14 | 770 nM | CCOC(=O)C(c1ccccc1)N1CCN(c2ccc(N3CCN(C4CCCC4)S3(=O)=O)cc2F)CC1 (stereo not shown) [Example 180, {4-[2-Fluoro-4-(5-cyclopentyl-1,2,5-thiadiazolidine-2-yl,1,1-dioxide)-phenyl]-piperazin-1-yl}-phenyl-acetic acid ethyl ester]
15 | 1650 nM | CCC(CC)C(=O)Nc1cnc(N2CCN(C(C(=O)N(CC)CC)c3ccccc3)CC2)nc1 (stereo not shown) [Example 182, N-{2-[4-(Diethylcarbamoyl-phenyl-methyl)-piperazin-1-yl]-pyrimidin-5-yl}-2-ethyl-butyramide]
16 | 4500 nM | CCC(CC)C(=O)Nc1ccc(N2CCN(C(C(=O)N(CC)CC)c3ccccc3)CC2)nn1 (stereo not shown) [Example 183, N-{6-[4-(Diethylcarbamoyl-phenyl-methyl)-piperazin-1-yl]-pyridazin-3-yl}-2-ethyl-butyramide]
17 | 870 nM | CCC(CC)C(=O)Nc1ccc(N2CCN(C(C(=O)NN)c3ccccc3)CC2)c(F)c1 (stereo not shown) [Example 184, 2-Ethyl-N-{3-fluoro-4-[4-(hydrazinocarbonyl-phenyl-methyl)-piperazin-1-yl]-phenyl}-butyramide]
18 | 2400 nM | CCN(CC)C(=O)C(c1ccccc1)N1CCN(c2ccc(C(=O)OC)cc2F)CC1 (stereo not shown) [Example 185, 4-[4-(Diethylcarbamoyl-phenyl-methyl)-piperazin-1-yl]-3-fluoro-benzoic acid methyl ester]
19 | 210 nM | CCN(CC)C(=O)C(c1ccccc1)C1CCN(c2ccc(NC(=O)c3ccnn3CC)cc2F)CC1 (stereo not shown) [Example 186, 2-Ethyl-2H-pyrazole-3-carboxylic acid {4-[4-(diethylcarbamoyl-phenyl-methyl)-piperidin-1-yl]-3-fluoro-phenyl}-amide]
20 | 148 nM | CCN(CC)C(=O)C(c1ccccc1)C1CCN(c2ccc(NC(=O)c3cccn3CC)cc2F)CC1 (stereo not shown) [Example 187, 1-Ethyl-1H-pyrrole-2-carboxylic acid {4-[4-(diethylcarbamoyl-phenyl-methyl)-piperidin-1-yl]-3-fluoro-phenyl}-amide]
21 | 200 nM | CCCCC(O)(c1ccccc1)C1CCN(c2ccc(NC(=O)C(CC)CC)cc2F)CC1 (stereo not shown) [Example 188, 2-Ethyl-N-{3-fluoro-4-[4-(1-hydroxy-1-phenyl-pentyl)-piperidin-1-yl]-phenyl}-butyramide]
22 | ≥ 10000 nM | CCCCC(c1ccccc1)C1CCN(c2ccc(NC(=O)C(CC)CC)cc2F)CC1 (stereo not shown) [Example 189, 2-Ethyl-N-{3-fluoro-4-[4-(1-phenyl-pentyl)-piperidin-1-yl]-phenyl}-butyramide]
23 | 5700 nM | CCC(CC)NC(=O)c1ccc(N2CCN(C(C(=O)N(CC)CC)c3ccccc3)CC2)c(F)c1 (stereo not shown) [Example 190, 4-[4-(Diethylcarbamoyl-phenyl-methyl)-piperazin-1-yl]-N-(1-ethyl-propyl)-3-fluoro-benzamide]
24 | 380 nM | CCN(CC)C(=O)C(c1ccccc1)N1CCN(c2ccc(Nc3ccccn3)cc2F)CC1 (stereo not shown) [Example 191, N,N-Diethyl-2-{4-[2-fluoro-4-(pyridin-2-ylamino)-phenyl]-piperazin-1-yl}-2-phenyl-acetamide]
25 | 5000 nM | CCN(CC)C(=O)C(c1ccccc1)N1CCN(c2ccc(Nc3ncccc3C)cc2F)CC1 (stereo not shown) [Example 192, N,N-Diethyl-2-{4-[2-fluoro-4-(3-methyl-pyridin-2-ylamino)-phenyl]-piperazin-1-yl}-2-phenyl-acetamide]
26 | 140 nM | CCC(CC)C(=O)Nc1ccc(C2=CCN(C(C(=O)N(CC)CC)c3ccccc3)CC2)c(F)c1 (stereo not shown) [Example 193, N-{4-[1-(Diethylcarbamoyl-phenyl-methyl)-1,2,3,6-tetrahydro-pyridin-4-yl]-3-fluoro-phenyl}-2-ethyl-butyramide]
27 | 100 nM | CCC(CC)C(=O)Nc1ccc(C2CCN(C(C(=O)N(CC)CC)c3ccccc3)CC2)c(F)c1 (stereo not shown) [Example 194, N-{4-[1-(Diethylcarbamoyl-phenyl-methyl)-piperidin-4-yl]-3-fluoro-phenyl}-2-ethyl-butyramide]
28 | 107 nM | CCC(CC)C(=O)Nc1ccc(N2CCN(C(C(=O)N3CCC(F)(F)CC3)c3cccc(F)c3)CC2)c(F)c1 (stereo not shown) [Example 196, N-(4-{4-[2-(4,4-Difluoro-piperidin-1-yl)-1-(3-fluoro-phenyl)-2-oxo-ethyl]-piperazin-1-yl}-3-fluoro-phenyl)-2-ethyl-butyramide]

Row | Structure (SMILES) | IC50
29 | CCN(CC)C(=O)C(c1ccccc1)N1CC=C(c2ccc(C(=O)OC)cc2F)CC1 (stereo not shown) [Example 181, 4-[1-(Diethylcarbamoyl-phenyl-methyl)-1,2,3,6-tetrahydro-pyridin-4-yl]-3-fluoro-benzoic acid methyl ester] | 9300 nM
30 | CCC(CC)C(=O)Nc1ccc(N2CCN(C(C(=O)N(CC)CC)c3cccc(Cl)c3)CC2)c(F)c1 (stereo not shown) [Example 195, N-(4-{4-[(3-Chloro-phenyl)-diethylcarbamoyl-methyl]-piperazin-1-yl}-3-fluoro-phenyl)-2-ethyl-butyramide] | 50 nM
31 | CCC(CC)C(=O)Nc1ccc(N2CCN(C(C(=O)N(CC)CC)c3ccc(F)cc3F)CC2)c(F)c1 (stereo not shown) [Example 197, N-(4-{4-[Diethylcarbamoyl-(2,4-difluoro-phenyl)-methyl]-piperazin-1-yl}-3-fluoro-phenyl)-2-ethyl-butyramide] | 150 nM
